Measurements: patent US20110262477A1 (priority 2008, published 2011)

What was measured:
[1] = target: T1, 5′-ecto nucleotidase (human homologue of bacterial AdsA) (Homo sapiens, UniProt P21589); conditions: cited from earlier work
T1 sequence (P21589 27-549): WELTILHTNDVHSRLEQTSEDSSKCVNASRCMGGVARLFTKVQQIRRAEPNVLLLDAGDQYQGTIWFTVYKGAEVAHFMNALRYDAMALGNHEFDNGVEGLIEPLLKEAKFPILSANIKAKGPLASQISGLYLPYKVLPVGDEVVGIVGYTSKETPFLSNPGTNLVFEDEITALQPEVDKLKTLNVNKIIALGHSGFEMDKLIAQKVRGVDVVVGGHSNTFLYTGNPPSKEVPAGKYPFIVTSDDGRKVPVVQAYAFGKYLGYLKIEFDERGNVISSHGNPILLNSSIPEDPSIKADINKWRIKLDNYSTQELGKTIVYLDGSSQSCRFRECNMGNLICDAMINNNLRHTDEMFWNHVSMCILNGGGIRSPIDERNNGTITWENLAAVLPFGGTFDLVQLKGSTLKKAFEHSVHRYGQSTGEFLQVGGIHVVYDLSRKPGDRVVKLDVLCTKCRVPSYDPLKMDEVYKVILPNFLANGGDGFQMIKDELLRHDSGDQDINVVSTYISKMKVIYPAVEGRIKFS

[2] = test system: secreted 5′-nucleotidases from trophozoites of Trichomonas gallinae; conditions: Borges et al., 2007; cited from earlier work
AdsA = format: biochemical, S. aureus
[3] = test system: adsA mutant staphylococci; assay: Survival of adsA staphylococci in rat blood with added adenosine (FIG. 17F); format: cell-based, S. aureus; conditions: addition of 1-100 μM adenosine
S. aureus = conditions: individual subunit vaccine antigens; none afforded complete protection; cited from earlier work
[4] = test system: Nc1ncnc2c1ncn2[C@@H]1O[C@H](COP(=O)(O)O)[C@@H](O)[C@H]1O; assay: purified protein, by the assay type; conditions: pH 7.5; 37.0 °C
[5] = target: T2, 5′-nucleotidases from rat liver membrane (Rattus norvegicus, UniProt P21588); conditions: Uchino et al., 1986; cited from earlier work
T2 sequence (P21588 29-551): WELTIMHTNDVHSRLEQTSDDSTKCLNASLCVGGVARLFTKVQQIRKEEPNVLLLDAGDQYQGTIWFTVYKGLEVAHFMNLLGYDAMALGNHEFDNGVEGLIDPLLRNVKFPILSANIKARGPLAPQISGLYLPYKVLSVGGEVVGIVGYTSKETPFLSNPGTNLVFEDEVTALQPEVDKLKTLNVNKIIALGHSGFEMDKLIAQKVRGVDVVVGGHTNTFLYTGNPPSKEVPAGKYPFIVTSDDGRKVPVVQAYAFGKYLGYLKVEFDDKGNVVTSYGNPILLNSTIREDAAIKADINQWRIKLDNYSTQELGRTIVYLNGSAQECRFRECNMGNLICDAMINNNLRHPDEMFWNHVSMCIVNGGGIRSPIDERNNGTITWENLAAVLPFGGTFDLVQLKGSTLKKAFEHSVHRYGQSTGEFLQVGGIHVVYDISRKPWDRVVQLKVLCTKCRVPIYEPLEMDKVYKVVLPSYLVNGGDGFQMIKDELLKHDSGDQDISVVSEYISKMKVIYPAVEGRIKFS

[6] = test system: 5′-nucleotidases from snake venom; conditions: Uchino et al., 1986; cited from earlier work
S. aureus Newman = assay: Eap, Emp vaccination, murine renal abscess model (FIG. 5); conditions: for histological lesions: kidneys of immunized mice, PBS mock 4/5, FIG. 5E

## Nc1ncnc2c1ncn2[C@@H]1O[C@H](COP(=O)(O)CP(=O)(O)O)[C@@H](O)[C@H]1O [AOPCP, α,β-methylene adenosine 5′-diphosphate]
[1]
  inhibition of 5′-ecto nucleotidase: inhibitor
[2]
  inhibition of secreted 5′-nucleotidases: does not inhibit

## O=S(=O)([O-])[O-].[Cu+2] [CuSO4]
AdsA
  inhibition of adenosine synthase activity: completely inhibited

## [Cl-].[Cl-].[Zn+2] [ZnCl2]
AdsA
  inhibition of adenosine synthase activity: completely inhibited

## Nc1ncnc2c1ncn2[C@@H]1O[C@H](CO)[C@@H](O)[C@H]1O [adenosine]
[3]
  survival of adsA mutant staphylococci in blood: dose-dependent increase in the survival

## IsdB: purified S. aureus sortase A substrate surface protein used as subunit vaccine antigen
S. aureus
  reduction in bacterial load: significant reduction in bacterial load

## SdrD: purified S. aureus sortase A substrate surface protein used as subunit vaccine antigen
S. aureus
  reduction in bacterial load: significant reduction in bacterial load

## SdrE: purified S. aureus sortase A substrate surface protein used as subunit vaccine antigen
S. aureus
  reduction in bacterial load: significant reduction in bacterial load

## Staphylococcus aureus adenosine synthase A (AdsA, SasH), purified soluble recombinant form AdsA1-400 (from GST-AdsA expressed in Escherichia coli), SEQ ID NO:36 (Staphylococcus aureus subsp. aureus NCTC 8325)
[4]
  Km: 0.044 µM

## melanocidins A and B
[5]
  inhibitory activity against 5′-nucleotidases: potent inhibitory activity
[6]
  inhibitory activity against 5′-nucleotidases: potent inhibitory activity

## nucleoticidin
[5]
  inhibitory activity against 5′-nucleotidases: potent inhibitory activity
[6]
  inhibitory activity against 5′-nucleotidases: potent inhibitory activity

B1: Emp: recombinant His-tagged staphylococcal envelope associated protein Emp (SEQ ID NO:2) purified from E. coli, vaccine antigen (protein, listed as Staphylococcus aureus)
chain: MKKKLLVLTMSTLFATQIMNSNHAKASVTESVDKKFVVPESGINKIIPAYDEFKNSPKVNVSNLTDNKNFVASEDKLNKIADSSAASKIVDKNFVVPESKLGNIVPEYKEINNRVNVATNNPASQQVDKHFVAKGPEVNRFITQNKVNHHFITTQTHYKKVITSYKSTHVHKHVNHAKDSINKHFIVKPSESPRYTHPSQSLIIKHHFAVPGYHAHKFVTPGHASIKINHFCVVPQINSFKVIPPYGHNSHRMHVPSFQNNTTATHQNAKVNKAYDYKYFYSYKVVKGVKKYFSFSQSNGYKIGKPSLNIKNVNYQYAVPSYSPTHYVPEFKGSLPAPRV
modifications: His-tag
S. aureus Newman; ELISA IgG titers from vaccinated mice, FIG. 5D
  titers of reactive IgG: > 64,000
S. aureus Newman
  histological lesions: 1/5

B2: Eap: recombinant His-tagged staphylococcal envelope associated protein Eap (SEQ ID NO:4) purified from E. coli, vaccine antigen (protein, listed as Staphylococcus aureus)
chain: MKFKSLITTTLALGVLASTGANFNNNEASAAAKPLDKSSSSLHHGYSKVHVPYAITVNGTSQNILSSLTFNKNQNISYKDLEDRVKSVLKSDRGISDIDLRLSKQAKYTVYFKNGTKKVIDLKAGIYTADLINTSEIKAININVDTKKQVEDKKKDKANYQVPYTITVNGTSQNILSNLTFNKNQNISYKDLEDKVKSVLESNRGITDVDLRLSKQAKYTVNFKNGTKKVIDLKSGIYTANLINSSDIKSININVDTKKHIENKAKRNYQVPYSINLNGTSTNILSNLSFSNKPWTNYKNLTSQIKSVLKHDRGISEQDLKYAKKAYYTVYFKNGGKRILQLNSKNYTANLVHAKDVKRIEITVKTGTKAKADRYVPYTIAVNGTSTPILSDLKFTGDPRVGYKDISKKVKSVLKHDRGIGERELKYAKKATYTVHFKNGTKKVININSNISQLNLLYVQDIKKIDIDVKTGTKAKADSYVPYTIAVNGTSTPILSKLKISNKQLISYKYLNDKVKSVLKSERGISDLDLKFAKQAKYTVYFKNGKKQVVNLKSDIFTPNLFSAKDIKKIDIDVKQYTKSKKNK
modifications: His-tag
S. aureus Newman
  histological lesions: 1/5

B3: IsdA: purified S. aureus sortase A substrate surface protein used as subunit vaccine antigen (protein, listed as Staphylococcus sp.)
chain: MTKHYLNSKYQSEQRSSAMKKITMGTASIILGSLVYIGADSQQVNAATEATNATNNQSTQVSQATSQPINFQVQKDGSSEKSHMDDYMQHPGKVIKQNNKYYFQTVLNNASFWKEYKFYNANNQELATTVVNDNKKADTRTINVAVEPGYKSLTTKVHIVVPQINYNHRYTTHLEFEKAIPTLADAAKPNNVKPVQPKPAQPKTPTEQTKPVQPKVEKVKPTVTTTSKVEDNHSTKVVSTDTTKDQTKTQTAHTVKTAQTAQEQNKVQTPVKDVATAKSESNNQAVSDNKSQQTNKVTKHNETPKQASKAKELPKTGLTSVDNFISTVAFATLALLGSLSLLLFKRKESK
S. aureus
  reduction in bacterial load: significant reduction in bacterial load
